Assay results: patent publication US20250145566A1, “PHENETHYLAMINE DERIVATIVES, COMPOSITIONS, AND METHODS OF USE” (Cybin IRL Limited, priority 2022, published 2025)
“Also recorded” adds a separate entry of the source.

What was measured:
[1] = Rat liver microsomes (RLM) in vitro metabolism; format: in vitro ADME; details: Sprague-Dawley, pH 7.4; rat liver microsomes, test compound 1 μM; * = apparent NADPH independent reaction; read-out: RLM t1/2
Protocol: (§1) Rat Liver Microsomes (RLM). Male Sprague-Dawley rat liver microsomes were purchased from XenoTech. The reaction mixture, minus NADPH, was prepared as described in Table 10. The test compound was added into the reaction mixture at a final concentration of 1 μM. The control compound, testosterone, was run simultaneously with the test compound in a separate reaction. The reaction mixture (without cofactor) was equilibrated in a shaking water bath at 37° C. for 5 minutes. The reaction was initiated by the addition of the cofactor, and the mixture was incubated in a shaking water bath at 37° C. Aliquots (150 μL) were withdrawn at 0, 5, 10, 20, 30, 60, and for some assays at 120 minutes. Test compound and testosterone samples were immediately combined with 150 μL of ice-cold acetonitrile (ACN) containing 0.1% formic acid and internal standard to terminate the reaction. The samples were then mixed and centrifuged to precipitate proteins. All samples were assayed by LC-MS/MS using electrospray ionization. The peak area response ratio (PARR) of analyte to internal standard at each time point was compared to the PARR at time 0 to determine the percent remaining at each time point. Half-lives were calculated using GraphPad software, fitting to a single-phase exponential decay equation.
(§2) In a different series of reactions using RLM, a 10 mM stock solution of the test compound was prepared in DMSO. From this stock solution, an intermediate stock solution of 1 mM was prepared by diluting the compound in DMSO and from this intermediate stock solution, a working solution of 0.30 mM was prepared by diluting the compound in ACN:Water (50:50) as a cocktail of two compounds (i.e., 30 μL the non-deuterated and the deuterated compound in 40 μL diluent in 100 μL total volume). Following this, a master mix of rat liver microsomes (final concentration 0.5 mg/ml, Xenotech Cat #R1000; Lot #1610290) and 0.1 M potassium phosphate buffer was prepared and pre-incubated for 5 min at 37° C. The test compound mixture was then added to achieve a final test article concentration of 1 μM (for each analog if co-dosed; 0.2% DMSO); verapamil was used as a positive control. Subsequently, 10 mM NADPH prepared in 0.1 M potassium phosphate buffer was added (final concentration 1 mM) to initiate the reaction and samples were incubated at 37° C. for the desired time points (0, 5, 15, 30, 45, 60 min). At each time point, 40 μL of the samples were withdrawn and reactions were stopped using 200 μL chilled ACN containing 0.1% formic acid and internal standard carbamazepine (10 ng/mL). The samples were centrifuged, and the supernatant was analyzed by LC-MS/MS. The percent compound remaining at each time point was calculated with respect to that of the 0 min sample. The data were then analyzed to calculate half-life. Blank samples were prepared using DMSO (without the test compound).

Rat Liver Microsomes = experiment: Rat liver microsomes (RLM) in vitro metabolism; format: in vitro ADME; details: result in words
Protocol: as §1, §2

MAO-B = biological target: T1, MAO-B (Homo sapiens, UniProt P27338); experiment: human MAO-B in vitro metabolism; format: in vitro ADME; details: human MAO-B enzyme (Corning), test compound 1 μM, read-out: MAO-B t1/2
T1 construct: purchased Corning 456284
T1 sequence (P27338 1-520): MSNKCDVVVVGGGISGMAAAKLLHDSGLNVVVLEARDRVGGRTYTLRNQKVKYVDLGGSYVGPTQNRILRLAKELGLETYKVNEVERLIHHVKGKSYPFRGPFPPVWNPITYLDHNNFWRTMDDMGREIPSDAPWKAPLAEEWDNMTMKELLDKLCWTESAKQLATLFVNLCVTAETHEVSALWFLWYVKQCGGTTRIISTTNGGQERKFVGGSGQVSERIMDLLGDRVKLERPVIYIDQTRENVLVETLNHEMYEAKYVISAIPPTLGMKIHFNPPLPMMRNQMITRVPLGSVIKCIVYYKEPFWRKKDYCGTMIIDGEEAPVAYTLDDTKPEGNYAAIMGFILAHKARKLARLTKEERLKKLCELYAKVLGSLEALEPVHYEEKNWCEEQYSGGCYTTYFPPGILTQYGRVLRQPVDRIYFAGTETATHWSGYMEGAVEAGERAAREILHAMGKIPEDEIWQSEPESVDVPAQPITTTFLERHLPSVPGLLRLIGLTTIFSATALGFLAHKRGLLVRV
Protocol: In a different series of reactions using human MAO-A and MAO-B, a 10 mM stock solution of the test compound was prepared in DMSO. From this stock solution, an intermediate stock solution of 1 mM was prepared by diluting the compound in DMSO and from this intermediate stock solution, a working solution of 0.30 mM was prepared by diluting the compound in ACN:Water (50:50) as cocktail of 2 compounds (30 μL each compound in 40 μL diluent for 100 μL). Following this, a master mix of 0.1 M potassium phosphate buffer and test compound mixture i.e., the non-deuterated and the deuterated analog, were prepared to achieve final drug concentration of 1 μM (0.2% DMSO) for the required number of reactions. The aforementioned master mix was pre-incubated at 37° C. for 5 min. To this master mix, MAO-A (final protein conc. 0.1 mg/mL; Corning Cat #456283; Lot #1173003) or MAO-B (final protein conc. 0.1 mg/mL; Corning Cat #456284; Lot #0318001) was added to initiate the reaction. The samples were then incubated at 37° C. for the desired time points. At each time point (0, 5, 15, 30, 45, 60), 40 μL of the samples were withdrawn and reactions were stopped using 200 μL chilled ACN containing 0.1% formic acid and internal standard Carbamazepine (10 ng/mL). The samples were centrifuged, and the supernatant was analyzed by LC-MS/MS. The percent compound remaining at each time point was calculated with respect to that of the 0 min sample. The data were then analyzed to calculate half-life and intrinsic clearance (CLint). Blank samples were prepared using DMSO (without the test compound).

5-HT2A (h) = biological target: T2, 5-HT2A (h) (Homo sapiens, UniProt P28223); experiment: 5-HT2A (h) agonist effect, IP1 HTRF functional assay; format: cell-based; details: for agonist efficacy at 5-HT2A, in words: EMAX relative to 5-HT
T2 construct: expressed in transfected cells; host or cells: HEK-293 cells

Serotonin transporter = biological target: T3, Serotonin transporter (Rattus norvegicus, UniProt P31652); experiment: Serotonin transporter uptake, rat brain synaptosomes; format: biochemical; details: for selectivity for blocking 5-HT reuptake relative to NE and DA, in words / selectivity for inhibiting SERT relative to DAT and NET: uptake inhibition
T3 construct: from tissue

Dopamine transporter = Dopamine transporter (Homo sapiens, UniProt Q01959); experiment: Dopamine transporter uptake (h); format: cell-based
5-HT transporter (h) = biological target: T4, 5-HT transporter (h) (Homo sapiens, UniProt P31645); experiment: 5-HT transporter (h) binding, [3H]imipramine; details: for selectivity for binding SERT over DAT and NET, in words: affinity screen at 10 μM
T4 construct: expressed in transfected cells; host or cells: CHO cells
T4 sequence (P31645 whole entry): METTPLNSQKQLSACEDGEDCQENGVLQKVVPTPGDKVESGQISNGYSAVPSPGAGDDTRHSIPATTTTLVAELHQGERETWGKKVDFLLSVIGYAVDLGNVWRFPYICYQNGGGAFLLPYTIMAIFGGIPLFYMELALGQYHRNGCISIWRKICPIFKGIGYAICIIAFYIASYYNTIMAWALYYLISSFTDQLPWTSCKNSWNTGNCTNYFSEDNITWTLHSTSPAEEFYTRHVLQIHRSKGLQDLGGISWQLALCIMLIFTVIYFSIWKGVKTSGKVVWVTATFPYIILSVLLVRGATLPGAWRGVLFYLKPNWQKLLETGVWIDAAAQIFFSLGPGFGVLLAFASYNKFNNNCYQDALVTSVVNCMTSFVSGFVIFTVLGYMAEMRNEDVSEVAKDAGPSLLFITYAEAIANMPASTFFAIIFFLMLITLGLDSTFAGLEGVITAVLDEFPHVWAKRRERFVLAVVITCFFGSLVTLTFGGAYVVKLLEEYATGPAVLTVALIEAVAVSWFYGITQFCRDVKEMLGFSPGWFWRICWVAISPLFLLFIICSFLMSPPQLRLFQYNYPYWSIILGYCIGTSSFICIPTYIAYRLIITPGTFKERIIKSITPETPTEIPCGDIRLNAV

Dopamine transporter, sequence (Q01959 whole entry): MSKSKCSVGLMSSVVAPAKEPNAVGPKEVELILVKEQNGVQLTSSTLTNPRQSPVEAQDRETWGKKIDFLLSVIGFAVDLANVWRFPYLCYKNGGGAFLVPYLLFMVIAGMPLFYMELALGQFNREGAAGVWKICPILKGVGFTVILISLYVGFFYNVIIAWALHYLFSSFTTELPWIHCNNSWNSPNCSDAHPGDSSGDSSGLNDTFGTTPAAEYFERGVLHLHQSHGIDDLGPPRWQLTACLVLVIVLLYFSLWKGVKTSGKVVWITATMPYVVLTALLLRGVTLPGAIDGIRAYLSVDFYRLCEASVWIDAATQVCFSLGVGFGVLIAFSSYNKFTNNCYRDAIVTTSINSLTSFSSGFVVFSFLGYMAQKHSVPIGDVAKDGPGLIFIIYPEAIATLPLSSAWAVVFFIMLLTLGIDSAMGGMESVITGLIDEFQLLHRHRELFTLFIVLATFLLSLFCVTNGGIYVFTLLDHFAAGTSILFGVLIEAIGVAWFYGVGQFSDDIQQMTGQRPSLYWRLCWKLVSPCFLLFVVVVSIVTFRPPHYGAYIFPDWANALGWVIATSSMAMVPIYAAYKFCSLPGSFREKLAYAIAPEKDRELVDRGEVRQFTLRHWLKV
T3 sequence (P31652 whole entry): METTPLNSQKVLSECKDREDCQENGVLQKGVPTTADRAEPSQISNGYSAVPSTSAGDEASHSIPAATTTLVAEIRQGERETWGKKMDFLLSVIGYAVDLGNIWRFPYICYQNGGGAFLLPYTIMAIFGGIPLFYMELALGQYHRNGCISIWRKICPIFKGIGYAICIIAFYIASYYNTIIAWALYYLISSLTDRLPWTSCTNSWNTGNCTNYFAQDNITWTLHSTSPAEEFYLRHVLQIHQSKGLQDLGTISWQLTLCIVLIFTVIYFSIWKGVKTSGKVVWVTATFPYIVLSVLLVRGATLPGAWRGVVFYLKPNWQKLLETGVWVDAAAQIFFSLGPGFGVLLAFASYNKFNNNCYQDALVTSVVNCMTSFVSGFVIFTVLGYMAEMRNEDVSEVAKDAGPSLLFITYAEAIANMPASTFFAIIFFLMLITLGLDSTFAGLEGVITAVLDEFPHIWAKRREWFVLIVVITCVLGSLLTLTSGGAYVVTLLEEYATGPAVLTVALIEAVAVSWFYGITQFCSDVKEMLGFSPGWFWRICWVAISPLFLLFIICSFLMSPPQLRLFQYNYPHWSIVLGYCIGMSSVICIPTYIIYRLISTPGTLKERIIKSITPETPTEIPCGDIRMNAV
T2 sequence (P28223 whole entry): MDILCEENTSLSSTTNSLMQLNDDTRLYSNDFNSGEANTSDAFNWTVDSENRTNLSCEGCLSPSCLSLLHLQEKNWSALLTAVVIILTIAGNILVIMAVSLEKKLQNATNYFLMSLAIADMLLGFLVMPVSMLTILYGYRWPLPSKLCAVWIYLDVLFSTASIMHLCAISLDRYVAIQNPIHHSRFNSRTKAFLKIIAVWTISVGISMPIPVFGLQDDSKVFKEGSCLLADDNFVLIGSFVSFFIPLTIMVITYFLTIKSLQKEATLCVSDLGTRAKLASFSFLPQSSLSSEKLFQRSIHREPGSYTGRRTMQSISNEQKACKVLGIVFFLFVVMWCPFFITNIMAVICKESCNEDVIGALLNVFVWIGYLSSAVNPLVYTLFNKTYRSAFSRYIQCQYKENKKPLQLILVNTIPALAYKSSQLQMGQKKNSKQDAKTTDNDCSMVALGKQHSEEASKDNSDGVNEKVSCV

| Compound | half-life at 1 µM [1] | disappearance in RLM, NADPH dependence (Rat Liver Microsomes) | half-life at 1 µM (MAO-B) | agonist efficacy at 5-HT2A, in words (5-HT2A (h); tested at 1, 3, 10, 100 μM) | efficacy for blocking 5-HT uptake through SERT, in words (Serotonin transporter; tested at 1, 3, 10, 100 μM) | selectivity for blocking 5-HT reuptake relative to NE and DA, in words (Serotonin transporter) | selectivity for inhibiting SERT relative to DAT and NET (Serotonin transporter) | efficacy for blocking DA uptake through DAT, in words (Dopamine transporter; tested at 1, 10, 100 μM) | selectivity for binding SERT over DAT and NET, in words (5-HT transporter (h)) | EC50 (5-HT2A (h)) | Emax at 100 µM (5-HT2A (h); at 100 μM, relative to 5-HT, read-out: Function 5-HT2A EMAX) | Function 5-HT2A (IP-1, efficacy relative to 5-HT), agonist type (5-HT2A (h); tested at 1, 3, 10, 100 μM) | IC50 (Serotonin transporter) | Function SERT, inhibition of SERT (Serotonin transporter; from 3 to 100 μM) | Function SERT (blocking reuptake of 5-HT), efficacy in words (Serotonin transporter; tested at 1, 3, 10, 100 μM) | IC50 (Dopamine transporter; Function DAT Estimated IC50, blocking reuptake of DA) | inhibition at 100 µM (Dopamine transporter; at 100 μM, read-out: Function DAT, inhibition of DAT) | Function DAT (blocking reuptake of DA), efficacy in words (Dopamine transporter; tested at 1, 10, 100 μM) | Binding SERT (antagonist radioligand), % competition (5-HT transporter (h); at 10 μM) |
| --- | --- | --- | --- | --- | --- | --- | --- | --- | --- | --- | --- | --- | --- | --- | --- | --- | --- | --- | --- |
| CC(N)Cc1ccc2c(c1)OCS2 (stereo not shown) [II-16, 1-(benzo[d][1,3]oxathiol-6-yl)propan-2-amine] | 11.7 min | NADPH-independent | 857 min | nearly full or full agonist; also recorded: full agonists | full efficacy | selectivity (higher potency) for blocking 5-HT reuptake relative to NE and DA | ~5 fold | full efficacy | substantial selectivity for binding SERT over DAT and NET |  |  |  |  |  |  |  |  |  |  |
| NCCc1ccc2c(c1)OCS2 [II-14, 2-(benzo[d][1,3]oxathiol-6-yl)ethan-1-amine] | < 5 min | NADPH-independent | < 5 min | nearly full or full agonist; also recorded: full agonists | full efficacy | selectivity (higher potency) for blocking 5-HT reuptake relative to NE and DA | ~5 fold | full efficacy | substantial selectivity for binding SERT over DAT and NET | 3 µM | 87.3% | Nearly full agonist - | ~0.5 µM | 98.5-107.9%, | Full efficacy, | ~10 µM | 95% | Near full efficacy, | 54.7% competition |
